This is an account of results in patent publication US4973576A, “Bisphophonic acid derivatives and pharmaceutical compositions containing the same” (Yamanouchi Pharmaceutical Co., Ltd., priority 1987, dated 1990).

The subject of experiment [1] is hypercalcemia induced by administration of parathyroid hormone (PTH). As to the kind of experiment: Inhibitory effect on hypercalcemia induced by PTH in rats (serum Ca++). In kind it is in vivo, male Wistar rats. The following applies: mean ± S.E. The method, then: Rats of hypercalcemia induced by administration of parathyroid hormone (hereinafter referred to as "PTH") were used, and the decrement of the serum calcium amount by administration of the compound was measured.
30 μg/kg of human 1-34 PTH (manufactured by Peptide Laboratory) which was dissolved in a 0.1% BSA (bovine serum albumin)-containing physiological saline (content of the PTH is 6 μg/ml) was intravenously injected in an amount of 30 μg/kg (5 ml/kg as the solution) to 5-week male Wistar rats which had been fasting for 20 hours. Only 0.1% BSA-containing physiological saline was injected to the normal control group in the same manner. 45 minutes after the PTH injection, the rats were etherized and then subjected to celiotomy, whereby the blood was collected from the abdominal cava with a vacuum blood-collecting tube. The blood collected was immediately centrifuged by 3000 rpm, at 4° C. for 10 minutes to isolate the serum. The ionized calcium (Ca^++) concentration in the serum was immediately measured with a Ca^++ meter (Sera 250, manufactured by Horiba Manufacturing Co.).
The compounds of the present invention were dissolved using sodium hydroxide and hydrochloric acid, in physiological saline (pH 7.4), for subcutaneous administration, in such amounts that the dose amounted to 2 ml/kg, and for oral administration, in distilled water (pH 7.4) so that the dose amounted to 5 ml/kg. They were administered 24 or 72 hours before the PTH injection. A physiological saline or a distilled water was administered to the normal control group and the control group, in the same manner. Salmon calcitonin (SCT, manufactured by Armour Co.) was dissolved in physiological saline so that the dose amounted to 2 ml/kg, and then subcutaneously administered 30 minutes before the PTH injection.
The results for each group were expressed in terms of mean±S.E. (standard error) and comparison was made among the groups by testing by one-way analysis of variance. The significance level was taken at 5%.

The subject of experiment [2] is immobilization-induced atrophy of bone. Nature of the experiment: Inhibition of bone resorption: immobilization-induced (neurectomy) atrophy of bone in rats. The following applies: sc, 1.0 mg/kg once a day 14 days. It counts as in vivo, Wistar rats.
Setting [3] is: sc, 0.3 mg/kg, 72 hours before PTH injection.
Setting [4] is: sc, 1.0 mg/kg, 72 hours before PTH injection.
Setting [5] is: sc, 0.1 mg/kg, 72 hours before PTH injection.
The mark [6] stands for this setting: oral, 30 mg/kg, 72 hours before PTH injection.
Where [7] appears, read: oral, 100 mg/kg, 72 hours before PTH injection.
Setting [8] is: sc, 0.03 mg/kg, 72 hours before PTH injection.
Setting [9] is: sc, 30 mg/kg, 24 hours before PTH injection.

On to `CC(O)(P(=O)(O)O)P(=O)(O)O` [Etidronate, 1-hydroxyethylidene-1,1-bisphosphonic acid, reference compound], for which the “Serum Ca++” value in experiment [1] (sc, 10 mg/kg, 72 hours before PTH injection) is on record as 1.44 ± 0.01 m mole/liter; in experiment [1] (sc, 30 mg/kg, 72 hours before PTH injection), 1.40 ± 0.01 m mole/liter.

As for `CC(C)(C)c1cc(NC(P(=O)(O)O)P(=O)(O)O)no1` [Known Compound (note-1), [(5t-butyl-3-isoxazolyl)amino]methylenebis(phosphonic acid), reference compound], the entries for the “Serum Ca++” value in experiment [1] (setting [3]) and in experiment [1] (setting [4]) were 1.51 ± 0.03 m mole/liter and 1.43 ± 0.02 m mole/liter, respectively.

As for `CC(C)=CCCc1cc(NC(P(=O)(O)O)P(=O)(O)O)no1` [Example 31, [[5-(4-methyl-3-ene)pentyl-3-isoxazolyl]amino]methylene-bis(phosphonic acid)], the entries for the “Serum Ca++” value in experiment [1] (setting [5]) and in experiment [1] (setting [3]) were 1.20 ± 0.01 m mole/liter and 1.05 ± 0.03 m mole/liter, respectively.

On to `CC(C)CCc1cc(NC(P(=O)(O)O)P(=O)(O)O)no1` [Example 25], for which the “Serum Ca++” value in experiment [1] (setting [5]) is reported as 1.39 ± 0.02 m mole/liter; in experiment [1] (setting [4]), 1.36 ± 0.02 m mole/liter.

With `CCCCCCCc1cc(NC(P(=O)(O)O)P(=O)(O)O)no1` [Example 23], the “Serum Ca++” value is 1.49 ± 0.00 m mole/liter in experiment [1] (setting [6]), 1.41 ± 0.02 m mole/liter in experiment [1] (setting [7]), 1.40 ± 0.01 m mole/liter in experiment [1] (setting [8]) and 1.33 ± 0.01 m mole/liter in experiment [1] (setting [5]).

In the case of `CCCCCCc1cc(NC(P(=O)(O)O)P(=O)(O)O)no1` [Example 22], the “Serum Ca++” value is recorded as 1.44 ± 0.02 m mole/liter in experiment [1] (setting [6]); 1.28 ± 0.04 m mole/liter in experiment [1] (setting [7]); 1.45 ± 0.01 m mole/liter in experiment [1] (sc, 0.01 mg/kg, 72 hours before PTH injection); 1.35 ± 0.01 m mole/liter in experiment [1] (setting [8]); 1.21 ± 0.02 m mole/liter in experiment [1] (setting [5]).

Turning to `CCOP(=O)(O)C(Nc1cc(C)on1)P(=O)(O)O` (stereo not shown) [Example 14, ethyl [(5-methyl-3-isoxazolyl)amino]methylene-bis(phosphonate)], the “Serum Ca++” value in experiment [1] (setting [9]) was 1.45 ± 0.02 m mole/liter.

In the case of `O=P(O)(O)C(Nc1cc(C2CC2)on1)P(=O)(O)O` [Example 6, [(5-cyclopropyl-3-isoxazolyl)-amino]-methylene-bis(phosphonic acid)], the “Serum Ca++” value is 1.42 ± 0.02 m mole/liter in experiment [1] (setting [5]) and 1.25 ± 0.02 m mole/liter in experiment [1] (setting [3]).

Consider `CC(=O)N(c1cc(C)on1)C(P(=O)(O)O)P(=O)(O)O` [Example 12, [N-acetyl(5-methyl-3-isoxazolyl)amino]methylene-bis(phosphonic acid)], for which the “Serum Ca++” value in experiment [1] (setting [9]) was 1.44 ± 0.02 m mole/liter.

Regarding `CCCCc1cc(NC(P(=O)(O)O)P(=O)(O)O)no1` [Example 28, [(5-n-butyl-3-isoxazolyl)amino]methylene-bis(phosphonic acid)], the “Serum Ca++” value in experiment [1] (setting [6]) is reported as 1.46 ± 0.02 m mole/liter; in experiment [1] (setting [7]), 1.31 ± 0.04 m mole/liter; in experiment [1] (setting [5]), 1.36 ± 0.01 m mole/liter; in experiment [1] (setting [3]) it was 1.18 ± 0.02 m mole/liter.

As to `Cc1conc1NC(P(=O)(O)O)P(=O)(O)O` [Manufacture Example 3, [(4-methyl-3-isoxazolyl)amino]methylene-bis(phosphonic acid)], the “Serum Ca++” value in experiment [1] (setting [3]) is given as 1.45 ± 0.01 m mole/liter; in experiment [1] (setting [4]), 1.23 ± 0.05 m mole/liter.

As for `CCc1cc(NC(P(=O)(O)O)P(=O)(O)O)no1` [Manufacture Example 2, [(5-ethyl-3-isoxazolyl)amino]methylene-bis(phosphonic acid)], in experiment [2] (nontreated minus treated humerus ashed weight), the “Difference of Bone Ash Content (b)” value amounted to 3.0 ± 0.7 mg. Besides, the “Difference of Bone Weight (a)” value in experiment [2] (nontreated minus treated humerus dry weight) is 4.8 ± 1.3 mg. The “Serum Ca++” value is 1.46 ± 0.02 m mole/liter in experiment [1] (setting [6]); 1.16 ± 0.07 m mole/liter in experiment [1] (setting [7]); 1.39 ± 0.02 m mole/liter in experiment [1] (setting [5]); 1.22 ± 0.02 m mole/liter in experiment [1] (setting [3]); 1.41 ± 0.02 m mole/liter in experiment [1] (setting [9]).

`CCCc1cc(NC(P(=O)(O)O)P(=O)(O)O)no1` [Example 8]: the “Serum Ca++” value is recorded as 1.48 ± 0.02 m mole/liter in experiment [1] (setting [6]), 1.35 ± 0.02 m mole/liter in experiment [1] (setting [7]), 1.41 ± 0.02 m mole/liter in experiment [1] (setting [5]) and 1.27 ± 0.02 m mole/liter in experiment [1] (setting [3]).

Regarding `O=P(O)(O)C(Nc1cc(/C=C/c2ccccc2)on1)P(=O)(O)O` [Example 32], the “Serum Ca++” value in experiment [1] (setting [5]) is 1.41 ± 0.02 m mole/liter; in experiment [1] (setting [3]) it was 1.27 ± 0.02 m mole/liter.

Consider `CC(C)c1cc(NC(P(=O)(O)O)P(=O)(O)O)no1` [Known Compound (note-2), [(5isopropyl-3-isoxazolyl)amino]methylenebis(phosphonic acid), reference compound], for which the “Serum Ca++” value in experiment [1] (setting [5]) is reported as 1.58 ± 0.00 m mole/liter; in experiment [1] (setting [3]) it was 1.49 ± 0.01 m mole/liter; in experiment [1] (setting [4]) it was 1.39 ± 0.02 m mole/liter.
